Test results published in ChEMBL document CHEMBL4002599, “Structure-based design and synthesis of imidazo[1,2-a]pyridine derivatives as novel and potent Nek2 inhibitors with in vitro and in vivo antitumor activities” (Eur J Med Chem, 2017).
Activity calls are given as the source filed them. No cut-off for these calls is given here.

How the values were obtained:
[1] = target: T1, Serine/threonine-protein kinase Nek2 (Homo sapiens, UniProt P51955); test: Inhibition of N-terminal His6-tagged full-length recombinant human NEK2 expressed in baculovirus infected sf21 cells using biotin labelled-STK-3 substrate measured after 60 mins by HTRF assay
T1 sequence (P51955 whole entry): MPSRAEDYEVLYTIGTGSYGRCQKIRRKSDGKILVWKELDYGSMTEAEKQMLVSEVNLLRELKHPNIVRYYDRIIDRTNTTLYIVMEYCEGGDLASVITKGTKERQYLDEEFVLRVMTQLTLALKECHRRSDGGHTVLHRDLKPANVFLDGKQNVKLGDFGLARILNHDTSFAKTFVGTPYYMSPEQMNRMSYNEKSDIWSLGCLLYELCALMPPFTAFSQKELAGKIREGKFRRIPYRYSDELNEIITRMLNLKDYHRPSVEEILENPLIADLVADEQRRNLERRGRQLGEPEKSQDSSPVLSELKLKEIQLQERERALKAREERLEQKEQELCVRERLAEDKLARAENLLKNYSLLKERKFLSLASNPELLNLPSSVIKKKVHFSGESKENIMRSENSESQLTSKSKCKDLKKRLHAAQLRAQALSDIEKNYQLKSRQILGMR

[2] = system: MGC-803; test: Cytotoxicity against human MGC803 cells measured after 72 hrs by MTT assay; format: functional, cell-based; settings: MGC-803, 72 h
[3] = MRT (0 to t) in Sprague-Dawley rat at 1 mg/kg, iv administered as bolus dose by LC-MS/MS method; format: ADME, organism-based; settings: in vivo
[4] = Volume of distribution at steady state in Sprague-Dawley rat at 1 mg/kg, iv administered as bolus dose by LC-MS/MS method; format: ADME, organism-based; settings: in vivo, read-out: Vdss
[5] = system: Rattus norvegicus; test: AUC (0 to infinity) in Sprague-Dawley rat at 1 mg/kg, iv administered as bolus dose by LC-MS/MS method; format: ADME, organism-based; design: dose 1 mg/kg, time infinity, route intravenous; settings: in vivo
[6] = Half-life in Sprague-Dawley rat at 1 mg/kg, iv administered as bolus dose by LC-MS/MS method; format: ADME, organism-based; settings: in vivo
[7] = system: Rattus norvegicus; test: AUC (0 to t) in Sprague-Dawley rat at 1 mg/kg, iv administered as bolus dose by LC-MS/MS method; format: ADME, organism-based; settings: in vivo
[8] = Clearance in Sprague-Dawley rat at 1 mg/kg, iv administered as bolus dose by LC-MS/MS method; format: ADME, organism-based; settings: in vivo
[9] = system: HCT-116; test: Induction of apoptosis in human HCT116 cells assessed as early apoptotic cells at 0.5 uM measured after 24 hrs by Annexin-V/PI staining based flow cytometry (reference value: 4%); format: functional
[10] = system: HCT-116; test: Induction of apoptosis in human HCT116 cells assessed as late apoptotic cells at 0.5 uM measured after 24 hrs by Annexin-V/PI staining based flow cytometry (reference value: […]); format: functional
[11] = target: MAP kinase-activated protein kinase 2 (Homo sapiens, UniProt P49137); test: Inhibition of MAPKAPK2 (unknown origin)
Chain of MAP kinase-activated protein kinase 2 (P49137 whole entry): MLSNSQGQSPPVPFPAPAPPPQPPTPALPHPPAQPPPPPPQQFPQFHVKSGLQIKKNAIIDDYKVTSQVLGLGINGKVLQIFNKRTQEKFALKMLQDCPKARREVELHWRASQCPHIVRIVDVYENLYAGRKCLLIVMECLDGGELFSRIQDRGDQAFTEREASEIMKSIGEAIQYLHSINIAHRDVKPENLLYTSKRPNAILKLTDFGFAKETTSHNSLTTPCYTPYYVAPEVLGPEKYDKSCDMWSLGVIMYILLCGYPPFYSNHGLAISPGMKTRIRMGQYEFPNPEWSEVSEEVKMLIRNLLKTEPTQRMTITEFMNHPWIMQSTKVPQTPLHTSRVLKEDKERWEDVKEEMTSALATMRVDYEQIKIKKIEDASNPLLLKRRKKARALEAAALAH

[12] = target: Cyclin-dependent kinase 2 (Homo sapiens, UniProt P24941); test: Inhibition of CDK2 (unknown origin)
[13] = target: Mitogen-activated protein kinase 14 (Homo sapiens, UniProt Q16539); test: Inhibition of P38alpha (unknown origin)
Chain of Mitogen-activated protein kinase 14 (Q16539 whole entry): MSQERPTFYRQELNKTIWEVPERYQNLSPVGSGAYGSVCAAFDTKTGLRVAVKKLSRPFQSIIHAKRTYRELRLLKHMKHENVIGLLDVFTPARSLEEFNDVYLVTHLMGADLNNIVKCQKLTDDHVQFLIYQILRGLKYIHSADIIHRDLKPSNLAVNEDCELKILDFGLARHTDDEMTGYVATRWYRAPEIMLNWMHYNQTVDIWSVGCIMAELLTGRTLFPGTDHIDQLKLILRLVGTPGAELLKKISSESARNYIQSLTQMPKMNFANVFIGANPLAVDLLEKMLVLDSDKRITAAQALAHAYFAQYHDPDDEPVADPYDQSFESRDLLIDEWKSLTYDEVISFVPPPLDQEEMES

[14] = target: RAC-alpha serine/threonine-protein kinase (Homo sapiens, UniProt P31749); test: Inhibition of AKT1 (unknown origin)
Chain of RAC-alpha serine/threonine-protein kinase (P31749 whole entry): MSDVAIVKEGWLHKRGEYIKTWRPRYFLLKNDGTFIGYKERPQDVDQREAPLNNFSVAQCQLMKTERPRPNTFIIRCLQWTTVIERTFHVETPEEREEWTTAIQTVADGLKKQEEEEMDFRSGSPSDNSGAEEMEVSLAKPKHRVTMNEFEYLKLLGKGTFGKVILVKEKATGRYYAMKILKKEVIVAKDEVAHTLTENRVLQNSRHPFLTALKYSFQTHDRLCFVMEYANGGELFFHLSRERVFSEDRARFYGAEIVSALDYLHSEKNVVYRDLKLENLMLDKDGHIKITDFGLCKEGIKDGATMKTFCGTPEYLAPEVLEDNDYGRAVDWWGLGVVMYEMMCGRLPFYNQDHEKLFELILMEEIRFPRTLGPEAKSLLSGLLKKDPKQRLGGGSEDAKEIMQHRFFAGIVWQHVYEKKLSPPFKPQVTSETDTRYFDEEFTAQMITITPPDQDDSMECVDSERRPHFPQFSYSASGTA

[15] = target: T2, Aurora kinase A (Homo sapiens, UniProt O14965); test: Inhibition of Aurora A (unknown origin)
T2 sequence (O14965 whole entry): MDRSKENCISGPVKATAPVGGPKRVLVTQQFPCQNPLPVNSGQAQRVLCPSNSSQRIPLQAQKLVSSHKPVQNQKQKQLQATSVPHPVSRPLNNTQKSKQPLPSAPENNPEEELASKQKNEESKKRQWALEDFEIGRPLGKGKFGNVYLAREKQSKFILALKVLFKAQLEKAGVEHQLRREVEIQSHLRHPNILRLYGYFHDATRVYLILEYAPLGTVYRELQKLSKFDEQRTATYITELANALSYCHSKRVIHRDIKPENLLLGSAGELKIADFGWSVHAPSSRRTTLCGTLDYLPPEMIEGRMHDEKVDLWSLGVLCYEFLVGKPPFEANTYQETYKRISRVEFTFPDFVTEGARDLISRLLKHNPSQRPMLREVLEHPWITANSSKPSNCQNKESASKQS

[16] = system: HCT-116; test: Cytotoxicity against human HCT116 cells measured after 72 hrs by MTT assay; format: functional, cell-based; settings: HCT-116, 72 h
[17] = target: Glycogen synthase kinase-3 beta (Homo sapiens, UniProt P49841); test: Inhibition of GSK3beta (unknown origin)
Chain of Glycogen synthase kinase-3 beta (P49841 whole entry): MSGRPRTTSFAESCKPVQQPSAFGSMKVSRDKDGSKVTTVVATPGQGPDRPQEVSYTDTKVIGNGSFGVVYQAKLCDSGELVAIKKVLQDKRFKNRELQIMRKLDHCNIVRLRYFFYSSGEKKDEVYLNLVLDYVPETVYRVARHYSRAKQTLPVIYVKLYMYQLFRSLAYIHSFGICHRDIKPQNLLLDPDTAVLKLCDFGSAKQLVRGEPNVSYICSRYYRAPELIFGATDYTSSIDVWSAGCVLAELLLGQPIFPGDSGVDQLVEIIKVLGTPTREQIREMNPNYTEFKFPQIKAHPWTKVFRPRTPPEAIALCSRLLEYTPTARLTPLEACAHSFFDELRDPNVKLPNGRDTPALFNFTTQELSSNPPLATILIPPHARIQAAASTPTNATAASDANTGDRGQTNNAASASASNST

[18] = system: HCT-116; test: Induction of apoptosis in human HCT116 cells assessed as necrotic cells at 1 uM measured after 24 hrs by Annexin-V/PI staining based flow cytometry (reference value: 0.4%); format: functional
[19] = target: Ribosomal protein S6 kinase alpha-1 (Homo sapiens, UniProt Q15418); test: Inhibition of RSK1 (unknown origin)
Chain of Ribosomal protein S6 kinase alpha-1 (Q15418 whole entry): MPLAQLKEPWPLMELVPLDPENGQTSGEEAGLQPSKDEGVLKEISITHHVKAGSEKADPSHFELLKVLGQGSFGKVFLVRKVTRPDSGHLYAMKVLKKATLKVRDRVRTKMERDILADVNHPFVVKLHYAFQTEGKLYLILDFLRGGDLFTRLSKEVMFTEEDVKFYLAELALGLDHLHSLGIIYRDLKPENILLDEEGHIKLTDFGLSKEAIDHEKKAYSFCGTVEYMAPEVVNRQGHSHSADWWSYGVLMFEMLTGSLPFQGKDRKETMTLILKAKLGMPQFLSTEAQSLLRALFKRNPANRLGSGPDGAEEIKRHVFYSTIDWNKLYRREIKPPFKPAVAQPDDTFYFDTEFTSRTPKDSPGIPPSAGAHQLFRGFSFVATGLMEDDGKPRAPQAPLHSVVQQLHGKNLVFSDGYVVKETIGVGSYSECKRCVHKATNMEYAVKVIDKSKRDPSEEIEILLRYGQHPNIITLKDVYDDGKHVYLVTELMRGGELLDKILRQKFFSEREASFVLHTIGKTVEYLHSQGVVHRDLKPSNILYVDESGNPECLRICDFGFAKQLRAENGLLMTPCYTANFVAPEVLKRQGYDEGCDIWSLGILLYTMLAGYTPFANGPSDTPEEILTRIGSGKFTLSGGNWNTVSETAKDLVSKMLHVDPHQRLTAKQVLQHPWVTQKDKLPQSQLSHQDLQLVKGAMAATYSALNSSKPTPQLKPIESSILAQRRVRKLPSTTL

[20] = target: T3, Serine/threonine-protein kinase Chk1 (Homo sapiens, UniProt O14757); test: Inhibition of CHK1 (unknown origin)
T3 sequence (O14757 whole entry): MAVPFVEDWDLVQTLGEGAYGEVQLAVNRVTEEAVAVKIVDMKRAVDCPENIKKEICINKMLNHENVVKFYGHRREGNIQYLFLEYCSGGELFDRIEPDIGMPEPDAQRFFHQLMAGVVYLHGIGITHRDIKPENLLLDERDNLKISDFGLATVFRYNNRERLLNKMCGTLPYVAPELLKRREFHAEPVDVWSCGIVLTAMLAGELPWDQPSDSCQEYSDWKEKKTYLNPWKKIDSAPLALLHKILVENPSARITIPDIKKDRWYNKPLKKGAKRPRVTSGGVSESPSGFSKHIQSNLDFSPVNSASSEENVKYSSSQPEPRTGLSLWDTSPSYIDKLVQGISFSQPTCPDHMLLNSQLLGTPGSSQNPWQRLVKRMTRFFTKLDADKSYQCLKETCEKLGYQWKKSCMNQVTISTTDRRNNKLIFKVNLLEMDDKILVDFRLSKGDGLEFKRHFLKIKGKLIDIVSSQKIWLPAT

[21] = target: Tyrosine-protein kinase ABL1 (Homo sapiens, UniProt P00519); test: Inhibition of ABL (unknown origin)
Chain of Tyrosine-protein kinase ABL1 (P00519 whole entry): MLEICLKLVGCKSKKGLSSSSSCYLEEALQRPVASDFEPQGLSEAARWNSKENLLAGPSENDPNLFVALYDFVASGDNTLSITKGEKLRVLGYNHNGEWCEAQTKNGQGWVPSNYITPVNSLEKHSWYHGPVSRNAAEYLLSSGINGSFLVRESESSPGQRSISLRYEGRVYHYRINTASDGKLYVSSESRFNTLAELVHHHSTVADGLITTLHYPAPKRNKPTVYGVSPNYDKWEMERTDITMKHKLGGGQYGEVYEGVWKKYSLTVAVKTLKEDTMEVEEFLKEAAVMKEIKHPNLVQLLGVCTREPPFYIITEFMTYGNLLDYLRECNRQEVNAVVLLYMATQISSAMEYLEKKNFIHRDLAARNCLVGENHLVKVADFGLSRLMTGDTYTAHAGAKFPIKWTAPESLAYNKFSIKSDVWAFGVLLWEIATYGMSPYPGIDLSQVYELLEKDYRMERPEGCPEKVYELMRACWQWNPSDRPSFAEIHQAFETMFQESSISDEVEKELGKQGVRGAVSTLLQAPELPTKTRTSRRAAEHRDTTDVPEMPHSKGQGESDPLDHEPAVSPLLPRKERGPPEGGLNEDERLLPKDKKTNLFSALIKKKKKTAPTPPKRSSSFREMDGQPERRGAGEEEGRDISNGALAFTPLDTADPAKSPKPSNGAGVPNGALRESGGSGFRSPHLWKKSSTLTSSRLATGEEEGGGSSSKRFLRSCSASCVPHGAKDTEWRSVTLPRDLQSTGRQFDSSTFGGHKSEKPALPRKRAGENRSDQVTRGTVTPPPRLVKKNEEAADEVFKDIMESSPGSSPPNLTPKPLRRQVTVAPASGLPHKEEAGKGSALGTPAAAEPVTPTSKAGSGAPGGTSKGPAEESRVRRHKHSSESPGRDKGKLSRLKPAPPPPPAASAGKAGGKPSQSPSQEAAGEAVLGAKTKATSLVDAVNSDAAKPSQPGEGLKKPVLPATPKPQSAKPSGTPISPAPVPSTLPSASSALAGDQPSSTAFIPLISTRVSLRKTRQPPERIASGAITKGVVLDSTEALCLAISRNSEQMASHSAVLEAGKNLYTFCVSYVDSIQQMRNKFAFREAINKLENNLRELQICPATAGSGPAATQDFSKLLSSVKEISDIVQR

[22] = system: HCT-116; test: Induction of apoptosis in human HCT116 cells assessed as early apoptotic cells at 1 uM measured after 24 hrs by Annexin-V/PI staining based flow cytometry (reference value: 4%); format: functional
[23] = target: Dual specificity tyrosine-phosphorylation-regulated kinase 1A (Homo sapiens, UniProt Q13627); test: Inhibition of DYRK1A (unknown origin)
[24] = system: HCT-116; test: Induction of apoptosis in human HCT116 cells assessed as necrotic cells at 0.5 uM measured after 24 hrs by Annexin-V/PI staining based flow cytometry (reference value: 0.4%); format: functional
[25] = target: Cyclin-dependent kinase 4 (Homo sapiens, UniProt P11802); test: Inhibition of CDK4 (unknown origin)
Chain of Cyclin-dependent kinase 4 (P11802 whole entry): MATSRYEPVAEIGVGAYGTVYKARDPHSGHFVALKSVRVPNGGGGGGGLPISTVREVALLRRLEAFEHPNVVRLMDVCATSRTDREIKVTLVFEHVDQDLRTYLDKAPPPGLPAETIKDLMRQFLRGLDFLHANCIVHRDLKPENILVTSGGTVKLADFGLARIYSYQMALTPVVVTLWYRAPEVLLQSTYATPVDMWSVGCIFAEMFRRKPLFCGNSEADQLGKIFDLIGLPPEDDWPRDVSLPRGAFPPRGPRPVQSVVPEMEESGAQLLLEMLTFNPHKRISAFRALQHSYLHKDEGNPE

[26] = system: HCT-116; test: Induction of apoptosis in human HCT116 cells assessed as late apoptotic cells at 1 uM measured after 24 hrs by Annexin-V/PI staining based flow cytometry (reference value: […]); format: functional
[27] = system: Bel-7402; test: Cytotoxicity against human Bel7402 cells measured after 72 hrs by MTT assay; format: functional, cell-based; settings: Bel-7402, 72 h
[28] = target: Phosphatidylinositol 4,5-bisphosphate 3-kinase catalytic subunit alpha isoform (Homo sapiens, UniProt P42336); test: Inhibition of PI3Kalpha (unknown origin)
Chain of Phosphatidylinositol 4,5-bisphosphate 3-kinase catalytic subunit alpha isoform (P42336 whole entry, canonical isoform): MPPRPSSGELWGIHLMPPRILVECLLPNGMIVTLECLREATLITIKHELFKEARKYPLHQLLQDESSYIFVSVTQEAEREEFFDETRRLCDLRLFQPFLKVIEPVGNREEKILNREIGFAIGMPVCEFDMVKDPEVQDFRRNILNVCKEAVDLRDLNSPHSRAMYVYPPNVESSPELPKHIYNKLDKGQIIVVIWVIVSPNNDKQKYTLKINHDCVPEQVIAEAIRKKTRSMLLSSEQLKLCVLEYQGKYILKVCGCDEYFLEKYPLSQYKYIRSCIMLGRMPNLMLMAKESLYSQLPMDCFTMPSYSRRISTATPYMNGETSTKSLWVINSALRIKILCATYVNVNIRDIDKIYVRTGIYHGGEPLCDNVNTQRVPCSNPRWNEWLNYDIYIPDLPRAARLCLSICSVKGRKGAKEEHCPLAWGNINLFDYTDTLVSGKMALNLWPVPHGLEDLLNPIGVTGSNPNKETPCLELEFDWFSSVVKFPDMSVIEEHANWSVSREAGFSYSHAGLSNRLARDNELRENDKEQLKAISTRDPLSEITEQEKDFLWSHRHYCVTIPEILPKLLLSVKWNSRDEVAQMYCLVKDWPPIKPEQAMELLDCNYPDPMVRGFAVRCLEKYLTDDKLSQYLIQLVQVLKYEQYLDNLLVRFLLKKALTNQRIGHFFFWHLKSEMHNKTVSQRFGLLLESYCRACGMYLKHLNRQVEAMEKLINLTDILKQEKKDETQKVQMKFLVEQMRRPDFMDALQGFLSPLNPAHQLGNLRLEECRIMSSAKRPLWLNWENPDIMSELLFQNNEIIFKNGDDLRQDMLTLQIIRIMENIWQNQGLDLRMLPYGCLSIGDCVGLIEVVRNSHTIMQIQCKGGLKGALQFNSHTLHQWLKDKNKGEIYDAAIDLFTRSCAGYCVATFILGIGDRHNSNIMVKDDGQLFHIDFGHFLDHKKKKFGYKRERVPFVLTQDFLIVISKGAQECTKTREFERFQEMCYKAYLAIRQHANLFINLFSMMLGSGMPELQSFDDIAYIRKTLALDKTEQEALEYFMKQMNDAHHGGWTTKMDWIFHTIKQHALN

[29] = system: HCT-116; test: Cell cycle arrest in human HCT116 cells assessed as G2/M phase accumulation by measuring >4N DNA content at 0.5 to 1 uM measured after 24 hrs by propidium iodide staining based flow cytometry; format: functional
[30] = system: HCT-116; test: Induction of apoptosis in human HCT116 cells measured after 24 hrs by Annexin-V/PI staining based flow cytometry; format: functional, cell-based
[31] = system: HCT-116; test: Cell cycle arrest in human HCT116 cells assessed as accumulation at G2/M phase at 0.5 to 1 uM measured after 24 hrs by propidium iodide staining based flow cytometry; format: functional
[32] = system: HCT-116; test: Antitumor activity against human HCT116 cells xenografted in BALB/c nu/nu mouse assessed as reduction in tumor volume at 20 mg/kg, ip administered twice daily for 21 days; format: functional, organism-based
[33] = system: Mus musculus; test: Toxicity in BALB/c nu/nu mouse assessed as body weight loss at 20 mg/kg, ip administered twice daily for 21 days; format: organism-based; settings: in vivo
[34] = system: HCT-116; test: Antitumor activity against human HCT116 cells xenografted in BALB/c nu/nu mouse assessed as tumor growth inhibition at 20 mg/kg, ip administered twice daily for 21 days; format: functional; settings: HCT-116, ip, read-out: TGI

## CNC(=O)c1ccc(-c2cnc3cc(N4CCN(C)CC4)ccn23)cc1OC(C)c1ccccc1C(F)(F)F (stereo not drawn)
[1]
  IC50: 197000 nM

## CN1CCN(c2ccn3c(-c4ccc(C(N)=O)c(OCc5ccccc5)c4)cnc3c2)CC1
[1]
  IC50: 3210 nM
[2]
  IC50: 6210 nM

## CN(C)CCn1cc(-c2ccn3c(-c4ccc(C(N)=O)c(OCc5ccccc5)c4)cnc3c2)cn1
[3]
  MRT last: 1.68 h
[4]
  Vd: 4.06 L/kg
[5]
  AUC: 405 ng·h/mL
[6]
  half-life: 2.42 h
[7]
  AUCt: 386 ng·h/mL
[8]
  clearance: 42.4 mL/min/kg

## CN(C)CCn1cc(-c2ccn3c(-c4ccc(C(N)=O)c(OCc5cccc(F)c5)c4)cnc3c2)cn1 [listing 1 of 2 here]
[1]
  IC50: 1 nM
[9]
  Activity: 21.3%
[10]
  Activity: 20.1%
[3]
  MRT last: 1.3 h
[4]
  Vd: 2.53 L/kg
[11]
  IC50: > 10000 nM
[12]
  IC50: 370 nM
[13]
  IC50: > 10000 nM
[14]
  IC50: 608 nM
[15]
  IC50: 5300 nM
[16]
  IC50: 840 nM
[5]
  AUC: 507 ng·h/mL
[17]
  IC50: 91 nM
[18]
  Activity: 3.5%
[19]
  IC50: 5.4 nM
[20]
  IC50: 57 nM
[21]
  IC50: 20 nM
[6]
  half-life: 1.72 h
[22]
  Activity: 27.8%
[23]
  IC50: 6.5 nM
[24]
  Activity: 2.6%
[25]
  IC50: 441 nM
[26]
  Activity: 26.7%
[27]
  IC50: 7130 nM
[28]
  IC50: 6230 nM
[2]
  IC50: 530 nM
[7]
  AUCt: 495 ng·h/mL
[8]
  clearance: 33.3 mL/min/kg

## CN(C)CCn1cc(-c2ccn3c(-c4ccc(C(N)=O)c(OCc5cccc(F)c5)c4)cnc3c2)cn1 [listing 2 of 2 here]
[29]
  Activity: Active
[30]
  Activity: Dose-dependent effect
[31]
  Activity: Active
[32]
  Activity: Active

## COC(=O)c1ccc(-c2cnc3cc(N4CCN(C)CC4)ccn23)cc1OC(C)c1ccccc1C(F)(F)F (stereo not drawn)
[1]
  IC50: 42600 nM

## CN(C)CCn1cc(-c2ccn3c(-c4ccc(C(N)=O)c(OCc5cccc(C(F)(F)F)c5)c4)cnc3c2)cn1
[1]
  IC50: 7 nM
[3]
  MRT last: 1.38 h
[4]
  Vd: 5.08 L/kg
[15]
  IC50: > 10000 nM
[16]
  IC50: 1290 nM
[5]
  AUC: 268 ng·h/mL
[6]
  half-life: 1.49 h
[27]
  IC50: 2780 nM
[2]
  IC50: 790 to 800 nM
[7]
  AUCt: 262 ng·h/mL
[8]
  clearance: 62.8 mL/min/kg

## CN1CCN(c2ccn3c(-c4ccc(C(=O)NO)c(OCc5ccccc5C(F)(F)F)c4)cnc3c2)CC1
[1]
  IC50: 10000 nM
[2]
  IC50: 17100 nM

## C[C@@H](Oc1cc(-c2cnc3cc(N4CCN(C)CC4)ccn23)ccc1C(N)=O)c1ccccc1C(F)(F)F
[1]
  IC50: 1190 nM
[2]
  IC50: 3160 nM

## CC(Oc1cc(-c2cnc3cc(N4CCN(C)CC4)ccn23)ccc1C(N)=O)c1ccccc1C(F)(F)F (stereo not drawn)
[1]
  IC50: 2170 nM
[2]
  IC50: 12300 nM

## COc1cc(-c2cnc3cc(N4CCN(C)CC4)ccn23)ccc1C(N)=O
[1]
  IC50: 19300 nM
[2]
  IC50: > 30000 nM

## CN(C)CCn1cc(-c2ccn3c(-c4ccc(C(N)=O)c(OCc5cccc(F)c5)c4)cnc3c2)cn1.O=C(O)CCC(=O)O.O=C(O)CCC(=O)O
[33]
  Activity: Non-Toxic
[34]
  inhibition in vivo at 20 mg/kg: 36%
